Experimental data: ChEMBL document CHEMBL2062500, “Anti-inflammatory sesquiterpene lactones from the flower of Vernonia cinerea” (Bioorg Med Chem Lett, 2012)
Active and inactive are the calls of the source. The rule behind the calls is not given here.

Experiments:
[1] = Cytotoxicity in mouse RAW264.7 cells assessed as cell survival at 50 uM; assay type: cell-based; settings: read-out: Survival
[2] = system: RAW264.7; assay: Antiinflammatory activity against LPS-induced NO production in mouse RAW264.7 cells assessed as reduction in nitrite level preincubated for 15 mins prior to LPS treatment by Griess method; assay type: functional, cell-based
[3] = system: HEK293; assay: Inhibition of TNFalpha-induced NF-kappaB activity expressed in human HEK 293 cells at 50 uM after 6 hrs by luciferase reporter gene assay; assay type: cell-based
[4] = (§1) Inhibition of TNFalpha-induced NF-kappaB activity expressed in human HEK 293 cells after 6 hrs by luciferase reporter gene assay; assay type: cell-based; settings: HEK293, 6 h
[5] = Cytotoxicity in human HEK293 cells assessed as survival at 50 uM; assay type: cell-based; settings: read-out: Survival
[6] = system: RAW264.7; assay: Antiinflammatory activity against LPS-induced NO production in mouse RAW264.7 cells assessed as reduction in nitrite level at 50 uM preincubated for 15 mins prior to LPS treatment by Griess method; assay type: functional
[7] = system: HEK293; assay: as §1; assay type: cell-based

SMILES	viability at 50 µM [1] [%]	IC50 [2] [µM]	inhibition [3] [%]	IC50 [4] [µM]	viability at 50 µM [5] [%]	inhibition at 50 µM [6] [%]	inhibition [7]
C/C=C(\C)C(=O)O[C@H]1C[C@@H](C)[C@]2(OC)CC[C@](C)(/C=C3/OC(=O)C(CO)=C31)O2	15.6	2.4	94.1	1.6	9.3	99.8	–
C/C=C(\C)C(=O)O[C@H]1C[C@@H](C)[C@]2(O)CC[C@](C)(/C=C3/OC(=O)C(CO)=C31)O2 (relative stereo)	32.2	5.7	98.6	3.1	87.6	99.8	–
C[C@@H]1C[C@H](O)C2=C(CO)C(=O)O/C2=C/[C@@]2(C)CC[C@]1(O)O2	121	24.7	65.6	1.9	100	82.6	–
C=C(C)C(=O)O[C@H]1C[C@@H](C)[C@]2(OC)CC[C@](C)(/C=C3/OC(=O)C(COC(C)=O)=C31)O2	6.3	1.5	94.2	13.6	39.1	98.8	–
C/C=C(\C)C(=O)O[C@H]1C[C@@H](C)[C@]2(O)CC[C@](C)(/C=C3/OC(=O)C(COC(C)=O)=C31)O2	31.1	2	99.6	0.6	102	98	–
CC(=O)OCC1=C2/C(=C\[C@@]3(C)CC[C@](O)(O3)[C@H](C)C[C@@H]2O)OC1=O	18	2.7	90.3	10.2	55	99.3	–
CO[C@]12CC[C@](C)(/C=C3/OC(=O)C(CO)=C3[C@@H](O)C[C@H]1C)O2	134	28.1	33.4	–	91.9	84.2	inactive
C=C(C)C(=O)O[C@H]1C[C@@H](C)[C@]2(O)CC[C@](C)(/C=C3/OC(=O)C(COC(C)=O)=C31)O2	31.1	6.6	95.8	5.2	95.1	99.2	–
Cc1ccc(S(=O)(=O)N[C@@H](Cc2ccccc2)C(=O)CCl)cc1 [TPCK]	–	–	–	3.8	–	–	–
C/C=C(\C)C(=O)O[C@H]1C[C@@H](C)[C@]2(OC)CC[C@](C)(/C=C3/OC(=O)C(COC(C)=O)=C31)O2	5.4	1.2	97.6	12.8	16.5	99	–
Cc1ccc(S(=O)(=O)/C=C/C#N)cc1	–	–	–	2	–	–	–
CNC(=N)NCCC[C@H](N)C(=O)O	–	25.1	–	–	–	–	–
